From ChEMBL document CHEMBL3745606, “Dissection of N,N-diethyl-N'-phenylpiperazines as α7 nicotinic receptor silent agonists” (Bioorg Med Chem, 2016)
The source made the active and inactive calls. No cut-off for these calls is given here.

Experiments:
[1] = target: T1, Neuronal acetylcholine receptor; alpha3/beta4 (Homo sapiens) (UniProt P30926+P32297); assay: Partial agonist activity at human alpha3beta4 nAChR expressed in xenopus oocytes assessed as induction of PAM-sensitive desensitization at 30 uM by two-electrode voltage clamp electrophysiology relative to acetylcholine; type: cell-based
[2] = target: Neuronal acetylcholine receptor subunit alpha-7 (Homo sapiens) (UniProt P36544); assay: Agonist activity at human alpha7 nAChR expressed in xenopus oocytes assessed as induction of PAM-sensitive desensitization at 30 uM by two-electrode voltage clamp electrophysiology relative to acetylcholine; type: cell-based
Chain of Neuronal acetylcholine receptor subunit alpha-7 (Homo sapiens) (P36544 whole entry): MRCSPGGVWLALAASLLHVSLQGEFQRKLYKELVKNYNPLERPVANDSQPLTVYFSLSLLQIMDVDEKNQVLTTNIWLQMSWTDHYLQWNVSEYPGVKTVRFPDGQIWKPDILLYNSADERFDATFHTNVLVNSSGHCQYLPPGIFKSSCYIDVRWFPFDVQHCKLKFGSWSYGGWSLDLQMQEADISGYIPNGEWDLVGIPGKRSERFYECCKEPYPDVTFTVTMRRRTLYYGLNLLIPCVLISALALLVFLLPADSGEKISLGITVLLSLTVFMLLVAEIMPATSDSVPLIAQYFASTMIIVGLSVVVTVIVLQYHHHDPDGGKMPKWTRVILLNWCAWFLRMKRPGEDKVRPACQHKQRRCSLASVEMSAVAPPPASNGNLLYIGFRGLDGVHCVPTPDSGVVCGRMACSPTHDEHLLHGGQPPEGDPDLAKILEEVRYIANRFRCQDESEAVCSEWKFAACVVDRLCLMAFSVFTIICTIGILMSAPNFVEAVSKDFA

[3] = target: Neuronal acetylcholine receptor subunit alpha-7 (Homo sapiens) (UniProt P36544); assay: Agonist activity at human alpha7 nAChR expressed in xenopus oocytes assessed as potentiation of PNU-120596-induced PAM-sensitive desensitization at 30 uM by two-electrode voltage clamp electrophysiology relative to acetylcholine; type: cell-based
[4] = target: T2, Neuronal acetylcholine receptor; alpha4/beta2 (Homo sapiens) (UniProt P17787+P43681); assay: Partial agonist activity at alpha4beta2 nAChR (unknown origin) at 100 uM; type: protein-complex assay
[5] = target: T2, Neuronal acetylcholine receptor; alpha4/beta2 (Homo sapiens); assay: Antagonist activity at alpha4beta2 nAChR (unknown origin) at 100 uM; type: protein-complex assay
[6] = target: Neuronal acetylcholine receptor subunit alpha-7 (Homo sapiens) (UniProt P36544); assay: Partial agonist activity at human alpha7 nAChR expressed in xenopus oocytes assessed as potentiation of PNU-120596-induced PAM-sensitive desensitization at 30 uM by two-electrode voltage clamp electrophysiology relative to acetylcholine; type: cell-based
[7] = target: Neuronal acetylcholine receptor subunit alpha-7 (Homo sapiens) (UniProt P36544); assay: Partial agonist activity at human alpha7 nAChR expressed in xenopus oocytes assessed as induction of PAM-sensitive desensitization at 30 uM by two-electrode voltage clamp electrophysiology relative to acetylcholine; type: cell-based
[8] = target: Neuronal acetylcholine receptor subunit alpha-7 (Homo sapiens) (UniProt P36544); assay: Partial agonist activity at human alpha7 nAChR expressed in xenopus oocytes assessed as induction of PAM-sensitive desensitization by measuring ratio of peak current to net charge at 30 uM by two-electrode voltage clamp electrophysiology relative to acetylcholine; type: cell-based
[9] = target: T1, Neuronal acetylcholine receptor; alpha3/beta4 (Homo sapiens); assay: Antagonist activity at human alpha3beta4 nAChR expressed in xenopus oocytes at 100 uM by two-electrode voltage clamp electrophysiology; type: cell-based

| Structure (SMILES) | Activity [1] | fold change (FC) [2] | Activity [3] | fold change (FC) [3] | Activity [4] | Activity [5] | Activity [6] | fold change (FC) [6] | fold change (FC) [7] | Ratio [8] | Activity [9] |
| --- | --- | --- | --- | --- | --- | --- | --- | --- | --- | --- | --- |
| CC[N+]1(CC)CCC(Nc2ccccc2)CC1 | inactive | 0.002 | < 10% | 5.6 | – | – | – | – | – | – | – |
| CCN1CCN(c2cccc(Cl)c2)CC1 | inactive | 0.009 | < 10% | 0.1 | – | – | – | – | – | – | – |
| CC[N+]1(CC)CCN(c2cccc(C#N)c2)CC1 | inactive | 0.022 | < 10% | 1.5 | – | – | – | – | – | – | – |
| CC[N+]1(CC)CCN(c2ccc(C(F)(F)F)cc2)CC1 | inactive | 0.032 | < 10% | 61.8 | inactive | inactive | – | – | – | – | – |
| CC[N+]1(CC)CCN(c2ccc(Cl)cc2)CC1 | – | – | – | – | – | – | < 10% | 18.3 | 0.234 | 0.71 | – |
| CC[N+]1(CC)CCN(c2cccc(F)c2)CC1 | inactive | 0.061 | < 10% | 0.2 | – | – | – | – | – | – | – |
| CCN1CCN(c2ccc(F)cc2)CC1 | inactive | 0 | < 10% | 0 | – | – | – | – | – | – | – |
| CCN1CCN(c2cccc(Br)c2)CC1 | inactive | 0 | < 10% | 6.9 | – | – | – | – | – | – | – |
| CC[N+]1(CC)CCN(c2ccc(F)cc2)CC1 | inactive | 0.01 | < 10% | 22.9 | – | – | – | – | – | – | – |
| CC[N+]1(CC)CCC(=Cc2ccccc2)CC1 | inactive | 0.071 | < 10% | 9.9 | – | – | – | – | – | – | – |
| CC[N+]1(CC)CCN(c2ccc(C)cc2)CC1 | inactive | 0.011 | < 10% | 3.6 | – | – | – | – | – | – | – |
| CC[N+]1(CC)CCN(c2ccc3ccccc3c2)CC1 | – | – | – | – | – | – | < 10% | 15.9 | 0.143 | 0.71 | – |
| CC[N+]1(CC)CCN(c2cccc(O)c2)CC1 | – | – | – | – | – | – | < 10% | 31.4 | 0.283 | 0.67 | – |
| CC[N+]1(CC)CCN(c2ccc(Br)cc2)CC1 | – | 0.27 | < 10% | 12.3 | – | – | – | – | – | – | – |
| CC[N+]1(CC)CCN(c2ccc(C#N)cc2)CC1 | – | – | – | – | – | – | < 10% | 68 | 0.234 | 0.43 | – |
| CC[N+]1(CC)CCN(c2ccccc2)CC1 | – | 0.002 | < 10% | 1.3 | – | – | – | – | – | – | – |
| CC[N+]1(CC)CCN(c2cccc(OC)c2)CC1 | inactive | 0.011 | < 10% | 0.6 | – | – | – | – | – | – | Active |
| CC[N+]1(CC)CCN(c2cccc(Cl)c2)CC1 | inactive | 0.02 | < 10% | 4.2 | – | – | – | – | – | – | – |
| CC[N+]1(CC)CCN(c2ccccc2C)CC1 | – | – | – | – | – | – | < 10% | 16.4 | 0.319 | 0.46 | – |
| CC[N+]1(CC)CCN(c2ccccc2Cl)CC1 | – | – | – | – | – | – | < 10% | 36.6 | 0.367 | 0.63 | – |
| CC[N+]1(CC)CCN(c2ccc(OC)cc2)CC1 | inactive | 0.063 | < 10% | 11.6 | – | – | – | – | – | – | – |
| CC[N+]1(CC)CCN(c2ccc(C(N)=O)cc2)CC1 | inactive | 0.065 | < 10% | 43.9 | – | – | – | – | – | – | – |
| CC[N+]1(CC)CCN(c2cccc(Br)c2)CC1 | inactive | 0.04 | < 10% | 10 | inactive | inactive | – | – | – | – | – |
| CC[N+]1(CC)CCN(c2cccc(C(F)(F)F)c2)CC1 | inactive | 0 | < 10% | 3.1 | – | – | – | – | – | – | – |
| CC[N+]1(CC)CCN(c2cccc(C)c2)CC1 | inactive | 0.001 | < 10% | 0.2 | – | – | – | – | – | – | – |
| CC[N+]1(CC)CCN(c2ccc(OC)cc2OC)CC1 | – | 0.014 | < 10% | 1.1 | – | – | – | – | – | – | – |
| CC[N+]1(CC)CCN(c2cccc(C(N)=O)c2)CC1 | inactive | 0.056 | < 10% | 50.7 | – | – | – | – | – | – | – |
| CCN1CCN(c2ccc(C(F)(F)F)cc2)CC1 | inactive | 0 | < 10% | 1.4 | – | – | – | – | – | – | – |
